Reference: patent publication US20240226065A1, “USE OF RAGE INHIBITORS TO TREAT CANCER-RELATED COGNITIVE DECLINE” (Georgetown University, priority 2021, published 2024)

Test system: APOE4 mice
Assay: Barnes maze (spatial learning and memory) after doxorubicin treatment in APOE4 mice
Type: in vivo, mouse
Conditions: female APOE4 mice
Method: A study was conducted to evaluate the effects of RAGE inhibition on preventing CRCD. The study was performed using a mouse model of C57BL/6 J mice having the human APOE4 allele in the mouse APOE gene locus.
In the study, 24 female APOE mice were divided evenly into three treatment groups: Group 1, which received a vehicle control; Group 2, which received doxorubicin, a chemotherapy medication used to treat a variety of cancers that include breast cancer, bladder cancer, Kaposi's sarcoma, lymphoma, and acute lymphocytic leukemia; and Group 3, which received doxorubicin and FPS-ZM1, RAGE antagonist. Groups 2 and 3 were administered the doxorubicin as two doses of 5 mg/kg, separated by one week. Group 3 was administered 2 mg/kg of FPS-ZMI twice per week by intraperitoneal injection starting one week before the first administration of doxorubicin and continuing throughout the study.
Four weeks after doxorubicin treatment (or the vehicle control) was completed, mice were analyzed for hippocampal based memory via the Barnes maze (San Diego Instruments Inc., San Diego, CA). […] The apparatus was captured by overhead video and assessed using ANY-maze™ software. […]
The time to identify the correct (escape) hole on the final day is compared between groups. Primary latency, defined as the time for the mouse to make a first nose poke into the escape hole, was assessed. […]

Row | primary latency (time to first nose poke into the escape hole) (Group 2: doxorubicin two doses of 5 mg/kg one week apart, Barnes maze training day 4, four weeks after doxorubicin, Group 1 control 24.6 seconds) | Structure (SMILES) | primary latency (latency to identify the escape hole) (Group 3: doxorubicin two doses of 5 mg/kg plus FPS-ZM1 2 mg/kg intraperitoneal twice per week from one week before doxorubicin, training day 4, p=0.12 vs Group 2)
1 | 58.2 s | COc1cccc2c1C(=O)c1c(O)c3c(c(O)c1C2=O)C[C@@](O)(C(=O)CO)C[C@@H]3O[C@H]1C[C@H](N)[C@H](O)[C@H](C)O1 [doxorubicin] | 
2 |  | O=C(c1ccc(Cl)cc1)N(Cc1ccccc1)C1CCCCC1 [FPS-ZMI] | 28.0 s
